Test results taken from patent publication US20040043904A1, “N-(4-pyrazolyl) amide derivatives, chemicals for agricultural and horticultural use, and usage of the same” (priority 2003, published 2004).

Tested on: green peach aphid (Myzus persicae)
Assay: Insecticidal effect on green peach aphid (Test Example 7)
Format: in vivo
Details: 144 h, stems and leaves of Chinese cabbage sprayed, parasites counted six days after spraying, read-out: insecticidal effect (control efficacy)
From the text: Insecticidal Effect on Green Peach Aphid (Myzus persicae)
A Chinese cabbage plant was planted in each of plastic pots with a diameter of 8 cm and a height of 8 cm, and green peach aphids were propagated on the plant. The number of parasites of each pot was counted.
Then, the stems and leaves were sufficiently sprayed with the test solution. After air-drying, the pots were allowed to stand in a greenhouse.
Control efficacy (%)=100[(T×Ca)/(Ta×C)]×100
Ta: number of parasites before spraying in treated group,
T : number of parasites after spraying in treated group,
Ca: number of parasites before spraying in untreated group,
[…]: number of parasites after spraying in untreated group.

SMILES	pest or weed control at 500 ppm [%]
COc1cc(CC(=O)Nc2cnn(CCCl)c2Cl)ccc1Oc1ccc(C(F)(F)F)cn1 [Compound D-71, 5-chloro-4-(3-methoxy-4-(5-trifluoromethylpyridine-2-yloxy)phenylacetylamino)-1-(2-chloroethyl) pyrazole]	100
Cc1nn(C)c(Cl)c1NC(=O)Cc1ccc2oc(CC(C)(C)C)nc2c1 [Compound C-1, 5-chloro-4-(2-(2,2-dimethylpropyl)benzoxazole-5-ylacetylamino)-1,3-dimethylpyrazole]	100
CCn1ncc(NC(=O)Cc2ccc(Oc3ccc(C(F)(F)F)cn3)c(OC)c2)c1Cl [Compound D-33, 5-chloro-4-(3-methoxy-4-(5-trifluoromethylpyridine-2-yloxy)phenylacetylamino)-1-ethylpyrazole]	100
CCn1ncc(NC(=O)Cc2ccc(Oc3ccc(C(F)(F)F)cn3)c(OC)c2)c1Br [Compound D-79, 5-bromo-4-(3-methoxy-4-(5-trifluoromethylpyridine-2-yloxy)phenylacetylamino)-1-ethylpyrazole]	100
Cc1nn(C)c(Cl)c1NC(=O)Cc1ccc(-c2ccc(OC(F)(F)F)cc2)cc1 [Compound B-23, 5-chloro-4-(4-(4-trifluoromethoxyphenyl)phenylacetylamino)-1,3-dimethylpyrazole]	100
CCn1ncc(NC(=O)Cc2ccc(Oc3ccc(C(F)(F)F)nn3)c(OC)c2)c1Cl [Compound D-78, 5-chloro-4-(3-methoxy-4-(6-trifluoromethylpyridazine-3-yloxy)phenylacetylamino)-1-ethylpyrazole]	100
CCn1ncc(NC(=O)Cc2ccc(Oc3nc(C(F)(F)F)cs3)c(OC)c2)c1Cl [Compound D-94, 5-chloro-4-(3-methoxy-4-(4-trifluoromethylthiazole-2-yloxy)phenylacetylamino)-1-ethylpyrazole]	100
